In US7803801B2, “Aminopyridine compounds having Syk inhibitory activity” (Japan Tobacco, Inc., priority 2005, dated 2010):
pIC50: −log10 of the molar value. Structures can show the parent of a compound that is named as a salt.

Assays:
[1] = target: GST-Syk Full Protein (human) (Homo sapiens, UniProt P43405); experiment: Syk kinase inhibition test (HTRF method); format: biochemical; settings: HTRF, 100 μM ATP, 30 min room temperature, average; read-out: sykHTRF ave IC50
How it was run: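 HTRF read-out: after EDTA termination and 1 h with XL665-streptavidin and Eu-anti-phosphotyrosine, the 665/620 nm ratio was measured. The reaction ran 30 min at 20–25 °C with final 6.4 nM human GST-Syk, 250 nM biotinylated peptide, 100 μM ATP, pH 7.0 HEPES buffer, 2% DMSO.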

[2] = tested on: cultured human mast cells; experiment: Degranulation inhibition test using cultured human mast cells (IgE cross-linking, β-Hexosaminidase release); format: cell-based; settings: Mast cell; cultured human mast cells, anti-hIgE stimulation, β-Hexosaminidase index, average; read-out: human degranulation ave. IC50
How it was run: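 Degranulation was triggered by anti-hIgE (10 μg/mL final, 30 min, 37 °C) after a 10-min compound pretreatment (DMSO 0.1%) of cord-blood CD34+-derived mast cells primed 5 days with IL-4 and IgE. β-Hexosaminidase in supernatant was measured with p-nitrophenyl-GlcNAc substrate (A405), expressed against water-lysed total; IC50 (M).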

SMILES	pIC50 [1]	pIC50 [2]
Cc1ccnc(Nc2cccc(-c3cnc(C4CCN(CCO)CC4)s3)n2)c1 [Compound A-189]	6.00 to 7.00	6.00 to 7.00
CC(=O)N1CCN(Cc2ncc(-c3cccc(Nc4cc(C)ccn4)n3)s2)CC1 [Compound A-190]	6.00 to 7.00	6.00 to 7.00
Cc1ccnc(Nc2cccc(-c3cnc(CN[C@H]4CC[C@H](O)CC4)s3)n2)c1 [Compound A-191]	6.00 to 7.00	6.00 to 7.00
Cc1ccnc(Nc2cccc(-c3cnc(C4CCN(C(=O)CC(=O)O)CC4)s3)n2)c1 [Compound A-192, 3-(4-{5-[6-(4-methylpyridin-2-ylamino)pyridin-2-yl]thiazol-2-yl}piperidin-1-yl)-3-oxopropionic acid hydrochloride]	> 7.00	< 6.00
Cc1ccnc(Nc2cccc(-c3cnc(CN4CCOCC4)s3)n2)c1 [Compound A-193]	6.00 to 7.00	6.00 to 7.00
Cc1ccnc(Nc2cccc(-c3cnc(CN4CCNCC4)s3)n2)c1 [Compound A-194, N-(4-methylpyridin-2-yl)-N-{6-[2-(piperazin-1-ylmethyl)thiazol-5-yl]pyridin-2-yl}amine]	> 7.00	6.00 to 7.00
Cc1ccnc(Nc2cccc(-c3cnc(COC(=O)NCC4(O)CCCCC4)s3)n2)c1 [Compound A-195]	6.00 to 7.00	6.00 to 7.00
Cc1ccnc(Nc2cccc(-c3cnc(CNCC4(O)CCCCC4)s3)n2)c1 [Compound A-196]	6.00 to 7.00	6.00 to 7.00
Cc1ccnc(Nc2cccc(-c3cnc(CN4CCC(N)CC4)s3)n2)c1 [Compound A-197, 1-{5-[6-(4-methylpyridin-2-ylamino)pyridin-2-yl]thiazol-2-ylmethyl}piperidin-4-ylamine]	> 7.00	6.00 to 7.00
Cc1ccnc(Nc2cccc(-c3cnc(CN4CCN(S(C)(=O)=O)CC4)s3)n2)c1 [Compound A-198]	6.00 to 7.00	6.00 to 7.00
CC(=O)N[C@@H](C)c1ncc(-c2cccc(Nc3cc(C4(C)OCCO4)ccn3)n2)s1 [Compound A-199]	6.00 to 7.00	6.00 to 7.00
Cc1ccnc(Nc2cccc(-c3cnc(CNS(C)(=O)=O)s3)n2)c1 [Compound A-200, N-{5-[6-(4-methylpyridin-2-ylamino)pyridin-2-yl]thiazol-2-ylmethyl}methanesulfonamide]	> 7.00	6.00 to 7.00
Cc1ccnc(Nc2cccc(-c3cnc(CNC(=O)CO)s3)n2)c1 [Compound A-201]	6.00 to 7.00	6.00 to 7.00
CC(=O)N[C@H]1CC[C@H](c2ncc(-c3cccc(Nc4cc(C)ccn4)n3)s2)CC1 [Compound A-202, N-(trans-4-{5-[6-(4-methylpyridin-2-ylamino)pyridin-2-yl]thiazol-2-yl}cyclohexyl)acetamide]	> 7.00	< 6.00
COC(=O)[C@H]1CC[C@H](c2ncc(-c3cccc(Nc4cc(Cl)ccn4)n3)s2)CC1 [Compound A-203]	6.00 to 7.00	6.00 to 7.00
O=C(O)[C@H]1CC[C@H](c2ncc(-c3cccc(Nc4cc(Cl)ccn4)n3)s2)CC1 [Compound A-204, trans-4-{5-[6-(4-chloropyridin-2-ylamino)pyridin-2-yl]thiazol-2-yl}cyclohexanecarboxylic acid]	> 7.00	6.00 to 7.00
Cc1ccnc(Nc2cccc(-c3cnc(CCO)s3)n2)c1 [Compound A-205, 2-{5-[6-(4-methylpyridin-2-ylamino)pyridin-2-yl]thiazol-2-yl}ethanol]	> 7.00	6.00 to 7.00
Cc1ccnc(Nc2cccc(-c3cnc(COC(=O)NC[C@H]4CC[C@H](C(=O)O)CC4)s3)n2)c1 [Compound A-206]	< 6.00	< 6.00
Cc1ccnc(Nc2cccc(-c3cnc(CNC[C@H]4CC[C@H](C(=O)O)CC4)s3)n2)c1 [Compound A-207]	6.00 to 7.00	< 6.00
Cc1ccnc(Nc2cccc(-c3cnc(CNC[C@H]4CC[C@H](CO)CC4)s3)n2)c1 [Compound A-208]	6.00 to 7.00	< 6.00
Cc1ccnc(Nc2cccc(-c3cnc(CN4CCN(C)CC4)s3)n2)c1 [Compound A-209]	6.00 to 7.00	< 6.00
CC(=O)NC1CCN(Cc2ncc(-c3cccc(Nc4cc(C)ccn4)n3)s2)CC1 [Compound A-210]	< 6.00	< 6.00
Cc1ccnc(Nc2cccc(-c3cnc([C@H]4CC[C@H](CO)CC4)s3)n2)c1 [Compound A-211, (trans-4-{5-[6-(4-methylpyridin-2-ylamino)pyridin-2-yl]thiazol-2-yl}cyclohexyl)methanol]	> 7.00	6.00 to 7.00
CC(=O)N[C@@H](C)c1ncc(-c2cccc(Nc3cc(C(C)=O)ccn3)n2)s1 [Compound A-212]	6.00 to 7.00	6.00 to 7.00
COC(=O)[C@H]1CC[C@H](c2ncc(-c3cccc(Nc4cc5ccccc5cn4)n3)s2)CC1 [Compound A-213]	< 6.00	6.00 to 7.00
COc1ccc(NCc2ncc(-c3cccc(Nc4cc(C)ccn4)n3)s2)cc1 [Compound A-214]	6.00 to 7.00	< 6.00
O=C(O)[C@H]1CC[C@H](c2ncc(-c3cccc(Nc4cc5ccccc5cn4)n3)s2)CC1 [Compound A-215, trans-4-{5-[6-(isoquinolin-3-ylamino)pyridin-2-yl]thiazol-2-yl}cyclohexanecarboxylic acid]	> 7.00	6.00 to 7.00

The remaining lines, values ahead:

pIC50 [1]	pIC50 [2]	SMILES
6.00 to 7.00	< 6.00	Cc1ccnc(Nc2cccc(-c3cnc(CNCCO)s3)n2)c1 [Compound A-216]
6.00 to 7.00	< 6.00	Cc1ccnc(Nc2cccc(-c3cnc(CN4CCN(CCO)CC4)s3)n2)c1 [Compound A-217]
6.00 to 7.00	6.00 to 7.00	Cc1ccnc(Nc2cccc(-c3cnc(CCc4ccc(N)cc4)s3)n2)c1 [Compound A-218]
> 7.00	< 6.00	Cc1ccnc(Nc2cccc(-c3cnc([C@H]4CC[C@H](CN)CC4)s3)n2)c1 [Compound A-219, trans-4-{5-[6-(4-methylpyridin-2-ylamino)pyridin-2-yl]thiazol-2-yl}cyclohexylmethylamine]
6.00 to 7.00	6.00 to 7.00	CC(=O)Nc1ccc(CCc2ncc(-c3cccc(Nc4cc(C)ccn4)n3)s2)cc1 [Compound A-220]
6.00 to 7.00	< 6.00	Cc1ccnc(Nc2cccc(-c3cnc(CCc4ccc(NS(C)(=O)=O)cc4)s3)n2)c1 [Compound A-221]
6.00 to 7.00	< 6.00	Cc1ccnc(Nc2cccc(-c3cnc(CC(=O)OC(C)(C)C)s3)n2)c1 [Compound A-222]
> 7.00	6.00 to 7.00	Cc1ccnc(Nc2cccc(-c3cnc(CCc4ccc(C(=O)N5C[C@@H](O)[C@@H](O)C5)cc4)s3)n2)c1 [Compound A-223, ((3R,4S)-3,4-dihydroxypyrrolidin-1-yl)-[4-(2-{5-[6-(4-methylpyridin-2-ylamino)pyridin-2-yl]thiazol-2-yl}ethyl)phenyl]methanone]
6.00 to 7.00	< 6.00	Cc1ccnc(Nc2cccc(-c3cnc(Cc4ccc(C(=O)O)cc4)s3)n2)c1 [Compound A-224]
6.00 to 7.00	6.00 to 7.00	Cc1ccnc(Nc2cccc(-c3cnc([C@H]4CC[C@H](C(=O)N5CC[C@H](O)[C@@H](O)C5)CC4)s3)n2)c1 [Compound A-225]
6.00 to 7.00	6.00 to 7.00	Cc1ccnc(Nc2cccc(-c3cnc([C@H]4CC[C@H](C(=O)N5C[C@H](O)C[C@@H](O)C5)CC4)s3)n2)c1 [Compound A-226]
6.00 to 7.00	6.00 to 7.00	Cc1ccnc(Nc2cccc(-c3cnc([C@H]4CC[C@H](C(=O)N5C[C@H](O)C[C@H](O)C5)CC4)s3)n2)c1 [Compound A-227]
> 7.00	6.00 to 7.00	CC(=O)NC[C@H]1CC[C@H](c2ncc(-c3cccc(Nc4cc(C)ccn4)n3)s2)CC1 [Compound A-228, N-(trans-4-{5-[6-(4-methylpyridin-2-ylamino)pyridin-2-yl]thiazol-2-yl}cyclohexylmethyl)acetamide]
> 7.00	6.00 to 7.00	Cc1ccnc(Nc2cccc(-c3cnc([C@H]4CC[C@H](CNS(C)(=O)=O)CC4)s3)n2)c1 [Compound A-229, N-(trans-4-{5-[6-(4-methylpyridin-2-ylamino)pyridin-2-yl]thiazol-2-yl}cyclohexylmethyl)methanesulfonamide]
6.00 to 7.00	< 6.00	Cc1ccnc(Nc2cccc(-c3cnc(CC(=O)N4CCC(O)CC4)s3)n2)c1 [Compound A-230]
6.00 to 7.00	6.00 to 7.00	Cc1ccnc(Nc2cccc(-c3cnc(C)s3)n2)c1 [Compound A-231]
6.00 to 7.00	< 6.00	Cc1ccnc(Nc2cccc(-c3cnc(Cc4cccs4)s3)n2)c1 [Compound A-232]
6.00 to 7.00	6.00 to 7.00	Cc1ccnc(Nc2cccc(-c3cnc(CCc4ccc(C(=O)N5CCC(O)CC5)cc4)s3)n2)c1 [Compound A-233]
< 6.00	< 6.00	Cc1ccnc(Nc2cccc(-c3cnc(Cc4ccc(C(=O)N5CCC(O)CC5)cc4)s3)n2)c1 [Compound A-234]
> 7.00	6.00 to 7.00	Cc1ccnc(Nc2cccc(-c3cnc([C@H]4CC[C@H](CNC(=O)CO)CC4)s3)n2)c1 [Compound A-235, 2-hydroxy-N-(trans-4-{5-[6-(4-methylpyridin-2-ylamino)pyridin-2-yl]thiazol-2-yl}cyclohexylmethyl)acetamide]
6.00 to 7.00	6.00 to 7.00	Cc1ccnc(Nc2cccc(-c3cnc(CN4CCC(NS(C)(=O)=O)CC4)s3)n2)c1 [Compound A-236]
